Measurements reported in the supplement of paper PMC10733146.

Assays:
Assay in all cases: viability relative to DMSO control (fraction); higher = less drug effect (more viable cells)
Details in all cases: 48 h
Selinexor = compound: O=C(/C=C\n1cnc(-c2cc(C(F)(F)F)cc(C(F)(F)F)c2)n1)NNc1cnccn1 [Selinexor]
Procedure, shortened: (§1)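 Viability was measured as CellTiter-Glo luminescence relative to the median of 16 inner DMSO wells. Primary mononuclear tumour cells, fresh or cryopreserved, were Ficoll-isolated from blood or bone marrow or taken from processed lymph node. They were seeded at 4 × 10^4 cells per well into 384-well plates holding pre-plated compounds at five concentrations, one well each, and kept in RPMI-1640 with penicillin/streptomycin, L-glutamine and human serum at 37 °C and 5% CO2 for 48 h.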

CPI-169 = compound: CCS(=O)(=O)N1CCC([C@@H](C)n2c(C)c(C(=O)NCc3c(OC)cc(C)[nH]c3=O)c3ccccc32)CC1 [CPI-169]
Procedure, shortened: as §1

Etoposide = compound: COc1cc([C@@H]2c3cc4c(cc3[C@@H](O[C@@H]3O[C@@H]5CO[C@@H](C)O[C@H]5[C@H](O)[C@H]3O)[C@H]3COC(=O)[C@H]23)OCO4)cc(OC)c1O [Etoposide]
Procedure, shortened: as §1

Everolimus = compound: CO[C@H]1C[C@@H]2CC[C@@H](C)[C@@](O)(O2)C(=O)C(=O)N2CCCC[C@H]2C(=O)O[C@H]([C@H](C)C[C@@H]2CC[C@@H](OCCO)[C@H](OC)C2)CC(=O)[C@H](C)/C=C(\C)[C@@H](O)[C@@H](OC)C(=O)[C@H](C)C[C@H](C)/C=C/C=C/C=C/1C [Everolimus]
Procedure, shortened: as §1

Midostaurin hydrate = compound: CO[C@@H]1[C@H](N(C)C(=O)c2ccccc2)C[C@H]2O[C@]1(C)n1c3ccccc3c3c4c(c5c6ccccc6n2c5c31)C(=O)NC4 [Midostaurin hydrate]
Procedure, shortened: as §1

Bendamustine = compound: Cn1c(CCCC(=O)O)nc2cc(N(CCCl)CCCl)ccc21 [Bendamustine]
Procedure, shortened: as §1

Tofacitinib = compound: C[C@@H]1CCN(C(=O)CC#N)C[C@@H]1N(C)c1ncnc2[nH]ccc12 [Tofacitinib]
Procedure, shortened: as §1

SGC 0946 = compound: CC(C)N(CCCNC(=O)Nc1ccc(C(C)(C)C)cc1)C[C@H]1O[C@@H](n2cc(Br)c3c(N)ncnc32)[C@H](O)[C@@H]1O [SGC 0946]
Procedure, shortened: as §1

Roscovitine = compound: CC[C@H](CO)Nc1nc(NCc2ccccc2)c2ncn(C(C)C)c2n1 [Roscovitine]
Procedure, shortened: as §1

Entospletinib = compound: c1cn2cc(-c3ccc4cn[nH]c4c3)nc(Nc3ccc(N4CCOCC4)cc3)c2n1 [Entospletinib]
Procedure, shortened: as §1

Barasertib = compound: CCN(CCCOc1ccc2c(Nc3cc(CC(=O)Nc4cccc(F)c4)[nH]n3)ncnc2c1)CCOP(=O)(O)O [Barasertib]
Procedure, shortened: as §1

Palbociclib = compound: CC(=O)c1c(C)c2cnc(Nc3ccc(N4CCNCC4)cn3)nc2n(C2CCCC2)c1=O [Palbociclib]
Procedure, shortened: as §1

EPZ-6438 = compound: CCN(c1cc(-c2ccc(CN3CCOCC3)cc2)cc(C(=O)NCc2c(C)cc(C)[nH]c2=O)c1C)C1CCOCC1 [EPZ-6438]
Procedure, shortened: as §1

Test System: primary FL patient cells (S087)
- viability (Selinexor; 0.008 µM): 0.903
- viability (Selinexor; 0.04 µM): 0.872
- viability (Selinexor; 0.2 µM): 0.724
- viability (Selinexor; 1 µM): 0.681
- viability (Selinexor; 5 µM): 0.685
- viability (CPI-169; 0.024 µM): 0.99
- viability (CPI-169; 0.12 µM): 1.01
- viability (CPI-169; 0.6 µM): 0.99
- viability (CPI-169; 3 µM): 1
- viability (CPI-169; 15 µM): 0.955
- viability (Etoposide; 0.032 µM): 1.02
- viability (Etoposide; 0.16 µM): 0.974
- viability (Etoposide; 0.8 µM): 0.916
- viability (Etoposide; 4 µM): 0.981
- viability (Etoposide; 20 µM): 0.765
- viability (Everolimus; 0.0032 µM): 0.882
- viability (Everolimus; 0.016 µM): 0.851
- viability (Everolimus; 0.08 µM): 0.859
- viability (Everolimus; 0.4 µM): 0.846
- viability (Everolimus; 2 µM): 0.867
- viability (Midostaurin hydrate; 0.024 µM): 0.997
- viability (Midostaurin hydrate; 0.12 µM): 1.01
- viability (Midostaurin hydrate; 0.6 µM): 1.04
- viability (Midostaurin hydrate; 3 µM): 0.928
- viability (Midostaurin hydrate; 15 µM): 0.795
- viability (Bendamustine; 0.032 µM): 1.01
- viability (Bendamustine; 0.16 µM): 1
- viability (Bendamustine; 0.8 µM): 0.984
- viability (Bendamustine; 4 µM): 0.99
- viability (Bendamustine; 20 µM): 0.786
- viability (Tofacitinib; 0.024 µM): 0.972
- viability (Tofacitinib; 0.12 µM): 0.945
- viability (Tofacitinib; 0.6 µM): 0.978
- viability (Tofacitinib; 3 µM): 0.969
- viability (Tofacitinib; 15 µM): 1
- viability (SGC 0946; 0.024 µM): 1.02
- viability (SGC 0946; 0.12 µM): 0.957
- viability (SGC 0946; 0.6 µM): 0.923
- viability (SGC 0946; 3 µM): 0.967
- viability (SGC 0946; 15 µM): 0.645
- viability (Roscovitine; 0.032 µM): 0.924
- viability (Roscovitine; 0.16 µM): 0.905
- viability (Roscovitine; 0.8 µM): 0.916
- viability (Roscovitine; 4 µM): 0.9
- viability (Roscovitine; 20 µM): 0.798
- viability (Entospletinib; 0.024 µM): 1.09
- viability (Entospletinib; 0.12 µM): 1.01
- viability (Entospletinib; 0.6 µM): 1.04
- viability (Entospletinib; 3 µM): 1.06
- viability (Entospletinib; 15 µM): 1.02
- viability (Barasertib; 0.0008 µM): 0.918
- viability (Barasertib; 0.004 µM): 0.907
- viability (Barasertib; 0.02 µM): 0.967
- viability (Barasertib; 0.1 µM): 1.03
- viability (Barasertib; 0.5 µM): 1.01
- viability (Palbociclib; 0.024 µM): 0.979
- viability (Palbociclib; 0.12 µM): 0.917
- viability (Palbociclib; 0.6 µM): 0.947
- viability (Palbociclib; 3 µM): 0.788
- viability (Palbociclib; 15 µM): 0.123
- viability (EPZ-6438; 0.024 µM): 1.02
- viability (EPZ-6438; 0.12 µM): 1.01
- viability (EPZ-6438; 0.6 µM): 1.03
- viability (EPZ-6438; 3 µM): 0.993
- viability (EPZ-6438; 15 µM): 0.93

Test System: primary MCL patient cells (S063)
- viability (Selinexor; 0.008 µM): 0.945
- viability (Selinexor; 0.04 µM): 0.95
- viability (Selinexor; 0.2 µM): 0.811
- viability (Selinexor; 1 µM): 0.333
- viability (Selinexor; 5 µM): 0.363
- viability (CPI-169; 0.024 µM): 1
- viability (CPI-169; 0.12 µM): 1.1
- viability (CPI-169; 0.6 µM): 0.963
- viability (CPI-169; 3 µM): 1.06
- viability (CPI-169; 15 µM): 0.959
- viability (Etoposide; 0.032 µM): 1.11
- viability (Etoposide; 0.16 µM): 0.958
- viability (Etoposide; 0.8 µM): 1
- viability (Etoposide; 4 µM): 1.07
- viability (Etoposide; 20 µM): 0.698
- viability (Everolimus; 0.0032 µM): 1.02
- viability (Everolimus; 0.016 µM): 0.958
- viability (Everolimus; 0.08 µM): 0.959
- viability (Everolimus; 0.4 µM): 0.921
- viability (Everolimus; 2 µM): 0.958
- viability (Midostaurin hydrate; 0.024 µM): 1.02
- viability (Midostaurin hydrate; 0.12 µM): 1.07
- viability (Midostaurin hydrate; 0.6 µM): 1.11
- viability (Midostaurin hydrate; 3 µM): 1.08
- viability (Midostaurin hydrate; 15 µM): 0.2
- viability (Bendamustine; 0.032 µM): 0.975
- viability (Bendamustine; 0.16 µM): 0.983
- viability (Bendamustine; 0.8 µM): 1
- viability (Bendamustine; 4 µM): 0.938
- viability (Bendamustine; 20 µM): 0.52
- viability (Tofacitinib; 0.024 µM): 1.02
- viability (Tofacitinib; 0.12 µM): 0.945
- viability (Tofacitinib; 0.6 µM): 1.05
- viability (Tofacitinib; 3 µM): 1.14
- viability (Tofacitinib; 15 µM): 1.21
- viability (SGC 0946; 0.024 µM): 0.916
- viability (SGC 0946; 0.12 µM): 0.949
- viability (SGC 0946; 0.6 µM): 0.914
- viability (SGC 0946; 3 µM): 0.888
- viability (SGC 0946; 15 µM): 0.718
- viability (Roscovitine; 0.032 µM): 1.08
- viability (Roscovitine; 0.16 µM): 1.02
- viability (Roscovitine; 0.8 µM): 1.09
- viability (Roscovitine; 4 µM): 0.93
- viability (Roscovitine; 20 µM): 0.649
- viability (Entospletinib; 0.024 µM): 0.995
- viability (Entospletinib; 0.12 µM): 0.948
- viability (Entospletinib; 0.6 µM): 0.892
- viability (Entospletinib; 3 µM): 0.998
- viability (Entospletinib; 15 µM): 0.952
- viability (Barasertib; 0.0008 µM): 0.936
- viability (Barasertib; 0.004 µM): 0.879
- viability (Barasertib; 0.02 µM): 0.953
- viability (Barasertib; 0.1 µM): 0.893
- viability (Barasertib; 0.5 µM): 1.04
- viability (Palbociclib; 0.024 µM): 1.03
- viability (Palbociclib; 0.12 µM): 0.957
- viability (Palbociclib; 0.6 µM): 0.887
- viability (Palbociclib; 3 µM): 0.567
- viability (Palbociclib; 15 µM): 0.291
- viability (EPZ-6438; 0.024 µM): 1.04
- viability (EPZ-6438; 0.12 µM): 0.992
- viability (EPZ-6438; 0.6 µM): 1.04
- viability (EPZ-6438; 3 µM): 1.01
- viability (EPZ-6438; 15 µM): 0.944
